In the METLIN SMRT retention time set (Domingo-Almenara et al. 2019):

assay: gradient 5% acetonitrile 3 min, to 50% in 2 min, to 85% in 15 min, held 3 min, 100 µL/min; conditions: column: Zorbax Extend-C18 2.1 x 50 mm; eluents: water / acetonitrile, 0.1% formic acid
Procedure, shortened: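 Over 3 months, pure standards in mixtures of ~100 molecules were run by HPLC coupled to a quadrupole time-of-flight mass spectrometer in positive and negative ionization mode. The column was a Zorbax Extend-C18 (2.1 × 50 mm, 1.8 μm) at 100 μL/min, eluted with water and acetonitrile each holding 0.1% formic acid, with 40 μL dead and 900 μL dwell volumes. Retention time was determined from adduct peaks chosen by software and checked manually.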

SMILES | RP-LC retention time
Cc1oc(-c2[nH]ncc2C(=O)N(C)C)cc1S(=O)(=O)NCCN1CCOCC1 | 543 s
COc1ccc(NS(=O)(=O)c2cn(C)c3ncccc23)cc1 | 740 s
COc1ccc(CNC(=O)CSc2ccc(N3CCCC(C(=O)NC4CC4)C3)nn2)cc1 (stereo unspecified) | 631 s
CCC(=O)Nc1ccc2c(c1)nc(CN1CCCC1)n2C(C)C | 581 s
CCOC(=O)c1nc(NCc2ccc(Cl)cc2)c2ccccc2n1 | 868 s
CCOC(=O)c1ccc(NC(=O)N(Cc2cc(=O)[nH]c3ccccc23)C(C)C)cc1 | 772 s
Cc1c(-c2nnc(C(=O)NCCCN3CCCC3)o2)oc2c(C)cccc12 | 688 s
CCOC(=O)C1=C(CN2CCC(c3ccccc3)C2)NC(=O)NC1c1cccs1 (stereo unspecified) | 681 s
CC(=O)N(Cc1nn(C)c2c1CN(S(=O)(=O)c1ccc(Cl)cc1)CC2)c1ccccc1 | 844 s
COc1ccc(CNC(=O)C2CCN(c3ccc(SCc4ccccc4)nn3)CC2)c(OC)c1 | 767 s
Cc1nc2cc(N3CC(C(=O)Nc4ccc(Br)c(C)c4)CC3=O)ccc2o1 (stereo unspecified) | 846 s
CCNC(=O)C1CC(=O)N(C2CCCCC2)C1 (stereo unspecified) | 623 s
COC(=O)c1c(NCc2ccccc2C(F)(F)F)c2cccc(Cl)c2[nH]c1=O | 879 s
O=C(N[C@H]1C[C@@H]2C[C@H]1CN2S(=O)(=O)c1ccccc1C(F)(F)F)c1ccccc1 | 921 s
CCc1nc2cc(-c3noc(-c4n[nH]c5c4CCCC5)n3)ccc2o1 | 1000 s
O=C(Cc1ccc2c(c1)OCO2)Nc1ccc2scnc2c1 | 702 s
CC12CC(Br)(Br)C(=O)C3C1CCCC32 | 1100 s
CCN1c2ccc(Cl)cc2C(=O)NC12CCN(C(=O)NCc1ccccc1)CC2 | 837 s

SMILES | RP-LC retention time
Cc1noc(C)c1-c1ccc(S(=O)(=O)NCCc2ccc(S(N)(=O)=O)cc2)cc1 | 740 s
Brc1ccc(-c2nnc(SCCCCOc3ccccc3)o2)cc1 | 1280 s
COc1cccc(-c2nc(C3CCN(S(=O)(=O)c4cccc(Cl)c4)CC3)no2)c1 | 1160 s
Cc1cc(C)n(Cc2ccc(C(=O)N3C[C@H]4C[C@H](C3)[C@H]3CCCC(=O)N3C4)o2)n1 | 630 s
CNC(=O)NCCC1CCN(S(=O)(=O)c2ccc(C)cc2)CC1 | 708 s
Cc1ccc(-n2c(=O)n(C)c(=O)c3cc(C(=O)Nc4ccccc4C(N)=O)cnc32)cc1 | 857 s
O=C(Nc1cc(F)ccc1F)c1c(O)c2cccnc2n(-c2cccc(F)c2)c1=O | 1260 s
CCCN(C(=O)CC)c1nc(-c2ccccc2)cs1 | 1210 s
CCN(CC)CCNC(=O)c1cc2cc(S(=O)(=O)N(C)C)ccc2n1CC | 633 s
COc1ccc(-c2nc(-c3cn(-c4cccc(Cl)c4)nn3)no2)cc1OC | 1040 s
COc1cc(Nc2c(C(=O)N3CCCC3)cnc3nc(C)ccc23)cc(OC)c1OC | 592 s
CCOc1ccc(S(=O)(=O)NCCC(O)C(C)(C)C)cc1F (stereo unspecified) | 826 s
Cn1cc(C(=O)NCc2ccc(Cl)cc2)c(S(=O)(=O)N2CCSCC2)n1 | 909 s
Cc1nc2cc(-c3noc(C(C)Oc4cccc(Cl)c4)n3)ccc2n(C)c1=O (stereo unspecified) | 1110 s
C=CCn1c(C)c(CC(=O)N2CCCC2)c(=O)n2nc(-c3ccc(C)cc3)nc12 | 789 s
CCOC(=O)C1CCCN(S(=O)(=O)c2cccc3cccnc23)C1 (stereo unspecified) | 798 s
C=CCNC(=O)[C@@H]1[C@H](c2cc(OC)c(OC)c(OC)c2)c2cc3c(cc2[C@H](O)[C@H]1CO)OCO3 | 649 s
Cc1nc(Oc2ccccc2)cc(N2CCN(C(=O)c3c(F)cccc3F)CC2)n1 | 785 s
